The record followed here is patent US9868707B2, “Small molecule agonists of neurotensin receptor 1” (SANFORD-BURNHAM MEDICAL RESEARCH INSTITUTE, priority 2012, dated 2018).

One data set concerns the target NTR1 (Homo sapiens, UniProt P30989). The experiment in a line: NTR1 high-content imaging (HCS) dose response, NTR1-U2OS cells. The format is cell-based. Also on record: host or cells: U2OS osteosarcoma. Conditions: n = 4 unless otherwise noted. The source says: The cell lines utilized in the high-content imaging assays, which include the NTR1-, NTR2-, and GPR35-U2OS osteosarcomas, were obtained from the laboratory of Dr. Lawrence Barak at the Duke University Medical Center. The media used in the culture of the cell lines, as well as the assays themselves, consisted of Minimum Essential Medium (15-010-CM) and L-glutamine (25-005-CL) from Cellgro/Mediatech (Manassas, Va.), fetal bovine serum (SH30396.03) from Hyclone (Logan, Utah), penicillin-streptomycin solution (PS-20) from Omega Scientific in Tarzana, Calif., G418 (ant-gn-1) from Invivogen (San Diego, Calif.), and zeocin (R250-01) from Invitrogen (Carlsbad, Calif.). Cell lines were cultured in T225 tissue culture flasks (431082) supplied by Corning (Corning, N.Y.). Additional reagents employed include Dulbecco's Phosphate-Buffered Saline (DPBS) (21-031CV) from Cellgro/Mediatech, Trypsin-EDTA 0.05% (25300) from Invitrogen, paraformaldehyde (30528954) from Acros Organics (Geel, Belgium), Hoechst 33342 (H3570) from Invitrogen. The high-content assays were run in 1536-well plates (29326) supplied by Aurora Biotechnology (Poway, Calif.) and utilized aluminum plate seals (T592100) from E&K Scientific (Santa Clara, Calif.).
The neurotensin 1 peptide (N6383) from Sigma-Aldrich (St. Louis, Mo.) was used as a positive control in the NTR1 primary HCS assay. For the NTR2 selectivity assay, the non-specific, small molecule 3-(4-fluorophenyl)-7,8-dimethoxy-5-(4-methylbenzyl)-5H-pyrazolo[4,3-c]quinolone which was synthesized internally was used as a positive control. The GPR35 selectivity screen utilized zaprinast (ALX430-020-M010) from Alexis Biochemicals (Farmingdale, N.Y.) as a control.
The high-content imaging based NTR1 primary screen in 1536-well format was utilized to assay the MLSMR library of chemical entities in the following manner. On day one, 4 uL of a cell suspension containing 350,000 NTR1-U2OS cells per mL is added to each well of a 1536-well assay plate. Cells are plated in MEM medium containing 2.5% Fetal Bovine Serum, 1% Penicillin/Streptomycin solution, 1% L-Glutamine, 400 ug/mL G418, and 200 ug/mL Zeocin. The assay plates are then incubated overnight at 37° C., under 5% CO2. Following the overnight incubation, a volume of 60 nL of the compounds at 2 mM in DMSO (final 20 μM, 1% DMSO) was transferred to columns 5-48 of the assay plates using a LabCyte Echo Liquid Handler. Next, 60 nL of DMSO were dispensed to columns 1-4, which served as the positive and neutral control wells. […] The assay plates were centrifuged on an Eppendorf 5810 centrifuge at 1000 rpm for 1 min to ensure even liquid levels in the wells of the assay plates. The assay plates were then returned to the incubator for 1 hour. Following the hour-long incubation at 37° C., the cells in each well were fixed with 4 uL of 6% paraformaldehyde added with a Multidrop Combi. The assay plates were centrifuged as before and incubated at room temperature for 1 hour. On the Kalypsys, plates were then aspirated down to 2.5 uL per well and washed twice with 11 uL per well of DPBS, followed by a final aspiration to 2.5 uL per well. On the Combi dispenser, 5 uL of 5 ug/mL Hoechst 33342 diluted in DPBS was added to each well of assay plates. The plates were again centrifuged as previously described, sealed, and incubated for at least 1 hour prior to being loaded on a PerkinElmer Opera QEHS.
Image acquisition was performed with a 45 plate capacity loader/stacker and the following settings: 40×0.6 NA air objective, acquisition camera set to 2-by-2 binning for an image size of 688 by 512 pixels, beta-arrestin-GFP acquired using 488 nm laser excitation and 540/75 nm emission filters, DAPI (nuclei) using 365 nm Xenon lamp excitation and 450/50 nm emission filters, 3 fields per well. Image analysis was performed using the Acapella Spot Detection Algorithm. For analysis settings and the metrics employed in the data analyses, please refer to supplemental information.

The nature of data set [1]: Plasma stability, human plasma. The format is in vitro ADME. Here is the method: Plasma stability was determined using previously published methods (Kerns, E. H., and Di, L. 2008. Drug-like Properties: Concepts, Structure Design and Methods. Oxford UK: Elsevier). Compound (1.0 μM) was incubated at 37° C. in human or mouse plasma (from blood of healthy donors collected on EDTA) diluted to 50% (v/v) with pH 7.4 isotonic phosphate buffer. At time 0 min and 180 min, aliquots were collected, added to acetonitrile to quench the reaction and precipitate plasma proteins. These samples were centrifuged and the supernatant analyzed by the LC/MS/MS method described above for the presence of the parental compound.

Data set [2] can be described thus: Plasma protein binding, Rapid Equilibrium Device, mouse plasma. Format: in vitro ADME. To be noted: mouse plasma (EDTA), diluted 1:1 with PBS, read-out: Plasma Protein Binding (% Bound) (converted). Here is the method: The extent of compound bound to plasma proteins was measured using the Rapid Equilibrium Device (Pierce Thermo Scientific, Rockford Ill.). The base plate was rinsed with […] followed by 2× washes with ultrapure water and allowed to dry. Human and mouse plasma (BioChemed Services, Winchester Va.) collected in EDTA was allowed to thaw at room temperature and then warmed to 37° C., and diluted 1:1 (v:v) with 1×PBS, pH 7.4, prior to the assay. The compound (1.0 and 10.0 μM final) was added to the chamber containing 300 μl plasma:PBS. Next, 500 μl of dialysis buffer (1×PBS, pH7.4) was added to the buffer chambers of the inserts. The chambers were covered with sealing tape and incubated at 37° C. on an orbital shaker at 300× rpm for 4 hours. […] Results reported are the mean of each reaction duplicate, normalized to the internal standard, and expressed as a percent compound bound after the incubation time. The amount of compound in the supernatant was determined by LC/MS/MS and the percent of free and bound compounds were calculated with the following formulas: Percent of free parent compound=(amount of compound in receiver chamber/amount of compound in donor chamber)*100.

Chain of NTR1 (P30989 whole entry, species assumed): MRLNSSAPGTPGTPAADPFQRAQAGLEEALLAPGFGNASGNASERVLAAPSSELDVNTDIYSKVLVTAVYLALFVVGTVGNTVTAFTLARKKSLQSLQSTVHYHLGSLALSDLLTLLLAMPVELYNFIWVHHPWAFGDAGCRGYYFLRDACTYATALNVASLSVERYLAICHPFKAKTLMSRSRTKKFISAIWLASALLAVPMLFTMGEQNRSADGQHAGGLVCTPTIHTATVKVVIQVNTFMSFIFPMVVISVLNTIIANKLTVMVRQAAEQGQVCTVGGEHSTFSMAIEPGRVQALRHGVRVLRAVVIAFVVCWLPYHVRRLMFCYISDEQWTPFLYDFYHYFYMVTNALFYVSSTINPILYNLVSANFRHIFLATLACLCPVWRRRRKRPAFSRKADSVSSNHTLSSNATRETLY

As a reminder, the EC50 is the concentration needed to bring the measured effect to its halfway point. For orientation: Emax means the maximal effect, on the per cent scale that the assay sets. For the compound `COc1cc2nc(C3CC3)nc(N3CCN(c4ccccc4OC)CC3)c2cc1OC` [Compound 315, 2-cyclopropyl-6,7-dimethoxy-4-(4-(2-methoxyphenyl)piperazin-1-yl)quinazoline], the EC50 on NTR1 (Ave. ± S.E.M., read-out: HCS NTR1 Potency EC50) is 2000 ± 100 nM. At NTR1 (read-out: HCS NTR1 Potency Emax), the Emax amounted to 105%. In addition, the “Plasma Stability (% Remaining at 3 hrs)” value in data set [1] (Human) is reported as 100%. Moreover, the “plasma stability” value in data set [1] (species not stated) is recorded as “very high plasma stability”. For the same compound, the fraction unbound at 4 h, 1 μM in data set [2] (pH 7.4, 1 μM) is 0.0033. Moreover, the fraction unbound at 4 h, 10 μM in data set [2] (pH 7.4, 10 μM) was 0.0116.
